# In ChEMBL document CHEMBL1201862, “PubChem BioAssay data set” (2004):
#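 Step 1: Grow cells in 96-well plates. Step 2: Expose to compound for 48 hours at 5 concentrations. Step 3: Interpolate endpoints linearly; if unreached, use highest concentration. The concentration for 50% growth inhibition is given as GI50.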 The source made the active and inactive calls. No stated cut-off is given here; in the data, active = GI50 up to about 1.1 µM and inactive = higher.
# Key:
# Experiment in all cases: growth of human tumour cells (NCI), 48 h
# SF-539 = tested on: SF-539
# HCT-15 = tested on: HCT-15
# 786-0 = tested on: 786-0
# SW-620 = tested on: SW-620
# UACC-257 = tested on: UACC-257
# SF-295 = tested on: SF-295
# RPMI-8226 = tested on: RPMI-8226
# SF-268 = tested on: SF-268
# K562 = tested on: K562
# HT-29 = tested on: HT-29
# UO-31 = tested on: UO-31
# SK-OV-3 = tested on: SK-OV-3
# OVCAR-3 = tested on: OVCAR-3
# TK-10 = tested on: TK-10
# LOX IMVI = tested on: LOX IMVI
# U-251 = tested on: U-251
# EKVX = tested on: EKVX
# MDA-MB-231 = tested on: MDA-MB-231
# Malme-3M = tested on: Malme-3M
# HL-60 = tested on: HL-60
# ACHN = tested on: ACHN
# SNB-19 = tested on: SNB-19
# SK-MEL-28 = tested on: SK-MEL-28
# HOP-92 = tested on: HOP-92
# SK-MEL-2 = tested on: SK-MEL-2
# UACC-62 = tested on: UACC-62
# Hs-578T = tested on: Hs-578T
# IGROV-1 = tested on: IGROV-1
# CCRF-CEM = tested on: CCRF-CEM
# NCI/ADR-RES = tested on: NCI/ADR-RES
# BT-549 = tested on: BT-549
# M14 = tested on: M14
# OVCAR-8 = tested on: OVCAR-8
# MCF7 = tested on: MCF7
# CAKI-1 = tested on: CAKI-1
# OVCAR-4 = tested on: OVCAR-4
# NCI-H226 = tested on: NCI-H226
# COLO 205 = tested on: COLO 205
# SK-MEL-5 = tested on: SK-MEL-5
# NCI-H460 = tested on: NCI-H460
# HCT-116 = tested on: HCT-116
# HCC 2998 = tested on: HCC 2998
# NCI-H23 = tested on: NCI-H23
# PC-3 = tested on: PC-3
# A549 = tested on: A549
# SNB-75 = tested on: SNB-75
# MDA-MB-435 = tested on: MDA-MB-435
# A498 = tested on: A498
# OVCAR-5 = tested on: OVCAR-5
# MOLT-4 = tested on: MOLT-4
# NCI-H522 = tested on: NCI-H522
# KM12 = tested on: KM12
compound,measurement,setting,value
CCCC[C@@H]1CCN2C[C@@H](O)[C@@H](O)[C@H]2[C@@H]1O,GI50,SF-539,> 100 µM (inactive)
same,GI50,HCT-15,> 100 µM
same,GI50,786-0,> 100 µM (inactive)
same,GI50,SW-620,> 100 µM (inactive)
same,GI50,UACC-257,> 100 µM (inactive)
same,GI50,SF-295,> 100 µM (inactive)
same,GI50,RPMI-8226,> 100 µM (inactive)
same,GI50,SF-268,> 100 µM (inactive)
same,GI50,K562,> 100 µM (inactive)
same,GI50,HT-29,> 100 µM (inactive)
same,GI50,UO-31,> 100 µM (inactive)
same,GI50,SK-OV-3,> 100 µM (inactive)
same,GI50,OVCAR-3,> 100 µM (inactive)
same,GI50,TK-10,> 100 µM (inactive)
same,GI50,LOX IMVI,> 100 µM (inactive)
same,GI50,U-251,> 100 µM (inactive)
same,GI50,EKVX,> 100 µM (inactive)
same,GI50,MDA-MB-231,> 100 µM (inactive)
same,GI50,Malme-3M,> 100 µM (inactive)
same,GI50,HL-60,> 100 µM (inactive)
same,GI50,ACHN,> 100 µM (inactive)
same,GI50,SNB-19,> 100 µM (inactive)
same,GI50,SK-MEL-28,> 100 µM (inactive)
same,GI50,HOP-92,> 100 µM (inactive)
same,GI50,SK-MEL-2,> 100 µM (inactive)
same,GI50,UACC-62,> 100 µM (inactive)
same,GI50,Hs-578T,> 100 µM (inactive)
same,GI50,IGROV-1,> 100 µM (inactive)
same,GI50,CCRF-CEM,> 100 µM (inactive)
same,GI50,NCI/ADR-RES,> 100 µM (inactive)
same,GI50,BT-549,> 100 µM (inactive)
same,GI50,M14,> 100 µM (inactive)
same,GI50,OVCAR-8,> 100 µM (inactive)
same,GI50,MCF7,> 100 µM (inactive)
same,GI50,CAKI-1,> 100 µM (inactive)
same,GI50,OVCAR-4,> 100 µM (inactive)
same,GI50,NCI-H226,> 100 µM (inactive)
same,GI50,COLO 205,> 100 µM (inactive)
same,GI50,SK-MEL-5,> 100 µM (inactive)
same,GI50,NCI-H460,> 100 µM (inactive)
same,GI50,HCT-116,> 100 µM (inactive)
same,GI50,HCC 2998,> 100 µM (inactive)
same,GI50,NCI-H23,> 100 µM (inactive)
same,GI50,PC-3,> 100 µM (inactive)
same,GI50,A549,> 100 µM (inactive)
same,GI50,SNB-75,> 100 µM (inactive)
same,GI50,MDA-MB-435,> 100 µM (inactive)
same,GI50,A498,> 100 µM (inactive)
same,GI50,OVCAR-5,> 100 µM (inactive)
same,GI50,MOLT-4,> 100 µM (inactive)
same,GI50,NCI-H522,> 100 µM (inactive)
same,GI50,KM12,> 100 µM (inactive)
